± gives the expanded uncertainty stated by the source.
Details: Liquid, Vibrating tube method

Compound: CCCCCO [pentan-1-ol]
- mass density (353.15 K, 100 kPa): 768.1 ± 1.1 kg/m3
- mass density (353.15 K, 10000 kPa): 777.3 ± 1.1 kg/m3
- mass density (353.15 K, 20000 kPa): 785.6 ± 1.1 kg/m3
- mass density (353.15 K, 30000 kPa): 792.9 ± 1.1 kg/m3
- mass density (353.15 K, 40000 kPa): 799.8 ± 1.1 kg/m3
- mass density (353.15 K, 50000 kPa): 806.1 ± 1.1 kg/m3
- mass density (353.15 K, 60000 kPa): 812 ± 1.2 kg/m3
- mass density (353.15 K, 70000 kPa): 817.6 ± 1.2 kg/m3
- mass density (353.15 K, 80000 kPa): 822.8 ± 1.2 kg/m3
- mass density (353.15 K, 90000 kPa): 827.8 ± 1.2 kg/m3
- mass density (353.15 K, 100000 kPa): 832.6 ± 1.2 kg/m3
- mass density (353.15 K, 110000 kPa): 837.2 ± 1.3 kg/m3
- mass density (353.15 K, 120000 kPa): 841.6 ± 1.3 kg/m3
- mass density (353.15 K, 130000 kPa): 845.8 ± 1.3 kg/m3
- mass density (353.15 K, 140000 kPa): 849.7 ± 1.3 kg/m3
- mass density (363.15 K, 100 kPa): 759.4 ± 1.1 kg/m3
- mass density (363.15 K, 10000 kPa): 769.2 ± 1.1 kg/m3
- mass density (363.15 K, 20000 kPa): 777.7 ± 1.1 kg/m3
- mass density (363.15 K, 30000 kPa): 785.6 ± 1.1 kg/m3
- mass density (363.15 K, 40000 kPa): 792.6 ± 1.1 kg/m3
- mass density (363.15 K, 50000 kPa): 799.2 ± 1.1 kg/m3
- mass density (363.15 K, 60000 kPa): 805.5 ± 1.2 kg/m3
- mass density (363.15 K, 70000 kPa): 811.3 ± 1.2 kg/m3
- mass density (363.15 K, 80000 kPa): 816.7 ± 1.2 kg/m3
- mass density (363.15 K, 90000 kPa): 821.8 ± 1.2 kg/m3
- mass density (363.15 K, 100000 kPa): 826.8 ± 1.3 kg/m3
- mass density (363.15 K, 110000 kPa): 831.3 ± 1.3 kg/m3
- mass density (363.15 K, 120000 kPa): 835.8 ± 1.3 kg/m3
- mass density (363.15 K, 130000 kPa): 840.1 ± 1.3 kg/m3
- mass density (363.15 K, 140000 kPa): 844.2 ± 1.3 kg/m3
- mass density (373.15 K, 100 kPa): 750.7 ± 1.1 kg/m3
- mass density (373.15 K, 10000 kPa): 761.2 ± 1.1 kg/m3
- mass density (373.15 K, 20000 kPa): 770.3 ± 1.1 kg/m3
- mass density (373.15 K, 30000 kPa): 778.2 ± 1.1 kg/m3
- mass density (373.15 K, 40000 kPa): 785.7 ± 1.1 kg/m3
- mass density (373.15 K, 50000 kPa): 792.5 ± 1.2 kg/m3
- mass density (373.15 K, 60000 kPa): 798.9 ± 1.2 kg/m3
- mass density (373.15 K, 70000 kPa): 804.9 ± 1.2 kg/m3
- mass density (373.15 K, 80000 kPa): 810.5 ± 1.2 kg/m3
- mass density (373.15 K, 90000 kPa): 815.8 ± 1.2 kg/m3
- mass density (373.15 K, 100000 kPa): 820.9 ± 1.3 kg/m3
- mass density (373.15 K, 110000 kPa): 825.7 ± 1.3 kg/m3
- mass density (373.15 K, 120000 kPa): 830.3 ± 1.3 kg/m3
- mass density (373.15 K, 130000 kPa): 834.7 ± 1.3 kg/m3
- mass density (373.15 K, 140000 kPa): 839 ± 1.4 kg/m3
- mass density (383.15 K, 100 kPa): 741.5 ± 1.1 kg/m3
- mass density (383.15 K, 10000 kPa): 752.3 ± 1.1 kg/m3
- mass density (383.15 K, 20000 kPa): 761.9 ± 1.1 kg/m3
- mass density (383.15 K, 30000 kPa): 770.7 ± 1.1 kg/m3
- mass density (383.15 K, 40000 kPa): 778.5 ± 1.1 kg/m3
- mass density (383.15 K, 50000 kPa): 785.7 ± 1.2 kg/m3
- mass density (383.15 K, 60000 kPa): 792.3 ± 1.2 kg/m3
- mass density (383.15 K, 70000 kPa): 798.5 ± 1.2 kg/m3
- mass density (383.15 K, 80000 kPa): 804.3 ± 1.2 kg/m3
- mass density (383.15 K, 90000 kPa): 809.7 ± 1.3 kg/m3
- mass density (383.15 K, 100000 kPa): 815 ± 1.3 kg/m3
- mass density (383.15 K, 110000 kPa): 819.9 ± 1.3 kg/m3
- mass density (383.15 K, 120000 kPa): 824.7 ± 1.3 kg/m3
- mass density (383.15 K, 130000 kPa): 829.2 ± 1.4 kg/m3
- mass density (383.15 K, 140000 kPa): 833.5 ± 1.4 kg/m3
- mass density (393.15 K, 100 kPa): 731.7 ± 1.1 kg/m3
- mass density (393.15 K, 10000 kPa): 743.4 ± 1.1 kg/m3
- mass density (393.15 K, 20000 kPa): 753.7 ± 1.1 kg/m3
- mass density (393.15 K, 30000 kPa): 762.8 ± 1.1 kg/m3
- mass density (393.15 K, 40000 kPa): 771 ± 1.1 kg/m3
- mass density (393.15 K, 50000 kPa): 778.6 ± 1.2 kg/m3
- mass density (393.15 K, 60000 kPa): 785.6 ± 1.2 kg/m3
- mass density (393.15 K, 70000 kPa): 792 ± 1.2 kg/m3
- mass density (393.15 K, 80000 kPa): 798.1 ± 1.2 kg/m3
- mass density (393.15 K, 90000 kPa): 803.7 ± 1.3 kg/m3
- mass density (393.15 K, 100000 kPa): 809.1 ± 1.3 kg/m3
- mass density (393.15 K, 110000 kPa): 814.2 ± 1.3 kg/m3
- mass density (393.15 K, 120000 kPa): 819.1 ± 1.4 kg/m3
- mass density (393.15 K, 130000 kPa): 823.7 ± 1.4 kg/m3
- mass density (393.15 K, 140000 kPa): 828.1 ± 1.4 kg/m3
- mass density (403.15 K, 100 kPa): 721.7 ± 1.1 kg/m3
- mass density (403.15 K, 10000 kPa): 734.4 ± 1.1 kg/m3
- mass density (403.15 K, 20000 kPa): 745.3 ± 1.1 kg/m3
- mass density (403.15 K, 30000 kPa): 754.9 ± 1.1 kg/m3
- mass density (403.15 K, 40000 kPa): 763.4 ± 1.2 kg/m3
- mass density (403.15 K, 50000 kPa): 771.3 ± 1.2 kg/m3
- mass density (403.15 K, 60000 kPa): 778.4 ± 1.2 kg/m3
- mass density (403.15 K, 70000 kPa): 785.1 ± 1.2 kg/m3
- mass density (403.15 K, 80000 kPa): 791.3 ± 1.3 kg/m3
- mass density (403.15 K, 90000 kPa): 797.2 ± 1.3 kg/m3
- mass density (403.15 K, 100000 kPa): 802.8 ± 1.3 kg/m3
- mass density (403.15 K, 110000 kPa): 808 ± 1.3 kg/m3
- mass density (403.15 K, 120000 kPa): 813 ± 1.4 kg/m3
- mass density (403.15 K, 130000 kPa): 817.8 ± 1.4 kg/m3
- mass density (403.15 K, 140000 kPa): 822.3 ± 1.4 kg/m3

— the NIST ThermoML archive (doi:10.1016/j.fluid.2008.06.007)
